# Measured values from patent publication US9253983B2, “Triazole compound and use thereof” (KUREHA CORPORATION, priority 2011, dated 2016).
# What was measured:
# Ustilago nuda = assay: Test 2 for antifungal effect, plate medium: U.n; assay type: cell-based; details: PDA plate medium
# Description: (§1) Compound (1-1b) or Compound (1-2b) was dissolved in dimethyl sulfoxide, and the resulting solution was added to a PDA medium (potato dextrose-agar medium) at about 60° C. The medium and the solution were mixed thoroughly in a conical flask, poured into a petri dish, and allowed to solidify. In this way, a plate medium containing Compound (1-1b) or Compound (1-2b) at a certain concentration was prepared.
# (§2) Meanwhile, test microorganisms cultured on a plate medium in advance were cut out with the use of a cork borer 4 mm in diameter, and were inoculated onto the compound-containing plate medium. After the inoculation, the pathogens were cultured at their optimum growth temperatures (for example, refer to LIST OF CULTURES 1996 microorganisms 10th edition, Institute for Fermentation (foundation)) for 1 day to 7 days, and their growth was determined by measuring the diameter of their flora. The extent of growth of the pathogens on the compound-containing plate medium was compared with that of pathogens on a plate medium where no compound was added, and mycelial growth inhibition rate was calculated as in Experiment Example 10. Note that, in Experiment Example 11, controls used in the antifungal effect tests are Compound (1-1a) and Compound (1-2a) instead of Compound (1-1b) and Compound (1-2b), respectively.
# (§3) The results were rated on a 1-to-5 scale as in Experiment Example 10.
# Septoria tritici = assay: Test 2 for antifungal effect, plate medium: S.t; assay type: cell-based; details: PDA plate medium
# Description: as §1, §2, §3
# Penicillium italicum = assay: Test 2 for antifungal effect, plate medium: P.i; assay type: cell-based; details: PDA plate medium
# Description: as §1, §2, §3
# Gibberella fujikuroi = assay: Test 1 for antifungal effect, plate medium: G.f; assay type: cell-based; details: PDA plate medium
# Description: as §1, with “(1-1a)” for “(1-1b)”, “(1-2a)” for “(1-2b)”
# (§4) Meanwhile, test microorganisms cultured on a plate medium in advance were cut out with the use of a cork borer 4 mm in diameter, and were inoculated onto the compound-containing plate medium. After the inoculation, the microorganisms were cultured at their optimum growth temperatures (for example, refer to LIST OF CULTURES 1996 microorganisms 10th edition, Institute for Fermentation (foundation)) for 1 day to 7 days, and their growth was determined by measuring the diameter of their flora. The extent of growth of the microorganisms on the compound-containing plate medium was compared with that of microorganisms on a plate medium where no compound was added, and mycelial growth inhibition rate was calculated by the following equation: R=100(dc−dt)/dc where R is mycelial growth inhibition rate (%), dc is the flora diameter in untreated plate, and dt is the flora diameter in plate treated with the compound.
# (§5) A larger antifungal index indicates a better antifungal effect.
# Rhizopus oryzae = assay: Test 1 for antifungal effect, plate medium: R.o; assay type: cell-based; details: PDA plate medium
# Description: as §1, with “(1-1a)” for “(1-1b)”, “(1-2a)” for “(1-2b)”
# as §4, §5
# Microdochium nivale = assay: Test 1 for antifungal effect, plate medium: M.n; assay type: cell-based; details: PDA plate medium
# Description: as §1, with “(1-1a)” for “(1-1b)”, “(1-2a)” for “(1-2b)”
# as §4, §5
# Pyrenophora graminea = assay: Test 2 for antifungal effect, plate medium: P.g; assay type: cell-based; details: PDA plate medium
# Description: as §1, §2, §3
# Rhizoctonia solani = assay: Test 1 for antifungal effect, plate medium: R.s; assay type: cell-based; details: PDA plate medium
# Description: as §1, with “(1-1a)” for “(1-1b)”, “(1-2a)” for “(1-2b)”
# as §4, §5
# Puccinia recondita = assay: Efficacy of seed treatment on wheat brown rust; assay type: in vivo; details: wheat seed treatment 20 g ai/100 kg seeds, 12 days after inoculation
# Description: A pot experiment was performed to evaluate the efficacy of seed treatment in controlling wheat leaf rust. Compound (1-1a) and Compound (1-2a), each of which was dissolved in DMSO to make up such a concentration that the seeds would be treated in treatment amount of 20 g ai/100 kg seeds, were each applied to wheat seeds in a vial, and thereafter 8 wheat seeds were sowed on an 80-cm^2 pot. The pot was kept in a greenhouse with water supplied to its bottom. 21 days after the sowing, the wheat seeds were inoculated with Puccinia recondita, and kept in a wet box for 2 days. After that, the pot was again kept in the greenhouse with water supplied to its bottom. 12 days after the inoculation, the percentage of affected area was found, and the protective value was calculated by the following equation. Protective value (%)=(1−(Percentage of affected area in treated region/Percentage of affected area in untreated region))×100
# Botrytis cinerea = assay: Controlling effect on cucumber gray mold by foliage spray treatment (Tests 1 and 2); assay type: in vivo; details: foliage spray 12.5 mg/L, 1,000 L/ha, four days after inoculation
# Description: The cucumber plants had been grown in square plastic pots (6 cm×6 cm). After the suspension was then left to dry, paper discs (8 mm in diameter) impregnated with a spore suspension of Botrytis cinerea w ere placed on the leaves, and the plants were kept at 20° C. in a high humidity environment. Four days after inoculation, the lesion degree of the cucumber gray mold was examined in accordance with the criteria shown in Table 1, and the protective values were calculated by the following equation: Protective value (%)=(1−Average lesion degree in sprayed plot/Average lesion degree in unsprayed plot)×100.
# The cucumber plants had been grown in square plastic pots (6 cm×6 cm). After the leaves were air-dried, paper discs (8 mm in diameter) impregnated with a spore suspension of cucumber graymold-causing microorganisms were placed on the leaves, and the plants were kept at 20° C. in a high humidity environment. 4 days after the inoculation, the lesion degree of the cucumber gray mold was examined, and the protective values were calculated as were in Experiment Example 1.
# Sclerotinia sclerotiorum = assay: Test 1 for antifungal effect, plate medium: S.s; assay type: cell-based; details: PDA plate medium
# Description: as §1, with “(1-1a)” for “(1-1b)”, “(1-2a)” for “(1-2b)”
# as §4, §5
smiles,measurement,setting,value
"CC1(CCl)CCC(Cc2ccc(Cl)cc2)C1(O)Cn1cncn1 (single isomer, unassigned) [Compound (1-1a), (1,2-cis, 1,5-cis)-5-(4-chlorobenzyl)-2-chloromethyl-2-methyl-1-(1H-1,2,4-triazole-1-ylmethyl)cyclopentanol]",Antifungal index (mycelial growth inhibition rate),Ustilago nuda; 0.04 mg/L,1 (Less than 60%)
same,Antifungal index (mycelial growth inhibition rate),Ustilago nuda; 0.08 mg/L,1 (Less than 60%)
same,Antifungal index (mycelial growth inhibition rate),Ustilago nuda; 0.16 mg/L,1 (Less than 60%)
same,Antifungal index (mycelial growth inhibition rate),Ustilago nuda; 0.31 mg/L,2 (Less than 70% but not less than 60%)
same,Antifungal index (mycelial growth inhibition rate),Ustilago nuda; 0.63 mg/L,3 (Less than 80% but not less than 70%)
same,Antifungal index (mycelial growth inhibition rate),Ustilago nuda; 1.25 mg/L,4 (Less than 90% but not less than 80%)
same,Antifungal index (mycelial growth inhibition rate),Septoria tritici; 0.04 mg/L,1 (Less than 60%)
same,Antifungal index (mycelial growth inhibition rate),Septoria tritici; 0.08 mg/L,1 (Less than 60%)
same,Antifungal index (mycelial growth inhibition rate),Septoria tritici; 0.16 mg/L,1 (Less than 60%)
same,Antifungal index (mycelial growth inhibition rate),Septoria tritici; 0.31 mg/L,1 (Less than 60%)
same,Antifungal index (mycelial growth inhibition rate),Septoria tritici; 0.63 mg/L,1 (Less than 60%)
same,Antifungal index (mycelial growth inhibition rate),Septoria tritici; 1.25 mg/L,1 (Less than 60%)
same,Antifungal index (mycelial growth inhibition rate),Penicillium italicum; 0.04 mg/L,1 (Less than 60%)
same,Antifungal index (mycelial growth inhibition rate),Penicillium italicum; 0.08 mg/L,4 (Less than 90% but not less than 80%)
same,Antifungal index (mycelial growth inhibition rate),Penicillium italicum; 0.16 mg/L,4 (Less than 90% but not less than 80%)
same,Antifungal index (mycelial growth inhibition rate),Penicillium italicum; 0.31 mg/L,5 (90% or greater)
same,Antifungal index (mycelial growth inhibition rate),Penicillium italicum; 0.63 mg/L,5 (90% or greater)
same,Antifungal index (mycelial growth inhibition rate),Penicillium italicum; 1.25 mg/L,5 (90% or greater)
same,Antifungal index (mycelial growth inhibition rate),Gibberella fujikuroi; 0.16 mg/L,5 (90% or greater)
same,Antifungal index (mycelial growth inhibition rate),Gibberella fujikuroi; 0.31 mg/L,5 (90% or greater)
same,Antifungal index (mycelial growth inhibition rate),Gibberella fujikuroi; 0.63 mg/L,5 (90% or greater)
same,Antifungal index (mycelial growth inhibition rate),Gibberella fujikuroi; 1.25 mg/L,5 (90% or greater)
same,Antifungal index (mycelial growth inhibition rate),Gibberella fujikuroi; 2.50 mg/L,5 (90% or greater)
same,Antifungal index (mycelial growth inhibition rate),Rhizopus oryzae; 0.16 mg/L,3 (Less than 80% but not less than 70%)
same,Antifungal index (mycelial growth inhibition rate),Rhizopus oryzae; 0.31 mg/L,4 (Less than 90% but not less than 80%)
same,Antifungal index (mycelial growth inhibition rate),Rhizopus oryzae; 0.63 mg/L,5 (90% or greater)
same,Antifungal index (mycelial growth inhibition rate),Rhizopus oryzae; 1.25 mg/L,5 (90% or greater)
same,Antifungal index (mycelial growth inhibition rate),Rhizopus oryzae; 2.50 mg/L,5 (90% or greater)
same,Antifungal index (mycelial growth inhibition rate),Microdochium nivale; 0.16 mg/L,1 (Less than 60%)
same,Antifungal index (mycelial growth inhibition rate),Microdochium nivale; 0.31 mg/L,3 (Less than 80% but not less than 70%)
same,Antifungal index (mycelial growth inhibition rate),Microdochium nivale; 0.63 mg/L,3 (Less than 80% but not less than 70%)
same,Antifungal index (mycelial growth inhibition rate),Microdochium nivale; 1.25 mg/L,4 (Less than 90% but not less than 80%)
same,Antifungal index (mycelial growth inhibition rate),Microdochium nivale; 2.50 mg/L,5 (90% or greater)
same,Antifungal index (mycelial growth inhibition rate),Pyrenophora graminea; 0.04 mg/L,2 (Less than 70% but not less than 60%)
same,Antifungal index (mycelial growth inhibition rate),Pyrenophora graminea; 0.08 mg/L,3 (Less than 80% but not less than 70%)
same,Antifungal index (mycelial growth inhibition rate),Pyrenophora graminea; 0.16 mg/L,4 (Less than 90% but not less than 80%)
same,Antifungal index (mycelial growth inhibition rate),Pyrenophora graminea; 0.31 mg/L,5 (90% or greater)
same,Antifungal index (mycelial growth inhibition rate),Pyrenophora graminea; 0.63 mg/L,5 (90% or greater)
same,Antifungal index (mycelial growth inhibition rate),Pyrenophora graminea; 1.25 mg/L,5 (90% or greater)
same,Antifungal index (mycelial growth inhibition rate),Rhizoctonia solani; 0.16 mg/L,2 (Less than 70% but not less than 60%)
same,Antifungal index (mycelial growth inhibition rate),Rhizoctonia solani; 0.31 mg/L,2 (Less than 70% but not less than 60%)
same,Antifungal index (mycelial growth inhibition rate),Rhizoctonia solani; 0.63 mg/L,2 (Less than 70% but not less than 60%)
same,Antifungal index (mycelial growth inhibition rate),Rhizoctonia solani; 1.25 mg/L,2 (Less than 70% but not less than 60%)
same,Antifungal index (mycelial growth inhibition rate),Rhizoctonia solani; 2.50 mg/L,3 (Less than 80% but not less than 70%)
same,Protective value (%),Puccinia recondita,90%
same,Protective value (%),Botrytis cinerea,100%
same,Antifungal index (mycelial growth inhibition rate),Sclerotinia sclerotiorum; 0.16 mg/L,5 (90% or greater)
same,Antifungal index (mycelial growth inhibition rate),Sclerotinia sclerotiorum; 0.31 mg/L,5 (90% or greater)
same,Antifungal index (mycelial growth inhibition rate),Sclerotinia sclerotiorum; 0.63 mg/L,5 (90% or greater)
same,Antifungal index (mycelial growth inhibition rate),Sclerotinia sclerotiorum; 1.25 mg/L,5 (90% or greater)
same,Antifungal index (mycelial growth inhibition rate),Sclerotinia sclerotiorum; 2.50 mg/L,5 (90% or greater)
